From US20030111088A1, “Device and method for treating combination dependencies” (Addiction Therapies, Inc., priority 2001, published 2003)
Where two headings read alike, the source gives them in different places.

What was measured:
[1] = in vivo; cited from earlier work
[2] = several clinical studies; cited from earlier work
[3] = for plasma levels of nicotine by dose group: single and repeated dose parts
Description: The chamber 10 is a plastic drinking straw. The retainer 18 is a filter at the first end 12 of the straw. The user places the first end 12 of the device in a glass of apple juice and applies oral suction to the second end 14 of the device, such that the juice and nicotine 16 are delivered into the user's mouth.
The nicotine 16 in the device is in the form of coated sugar spheres of nicotine bitartrate having a diameter of approximately 500 micrometers. The nicotine spheres are prepared by spraying nicotine bitartrate dihydrate with a binder onto sugar spheres and applying a film coating. Using a Wurster processing unit, particles are suspended in air using a controlled airflow system and a coating suspension is added at a controlled rate via a pneumatically atomized nozzle. As atomized droplets of the coating solution contact the particles, they spread and coalesce on the particle surface. Excess moisture from the applied liquid evaporates in the apparatus, leaving a coated dry substance. Mixing of the coating suspension occurs throughout the manufacturing process to ensure uniformity of the suspension.
(§1) On day one, following overnight abstinence from smoking, healthy adult smokers who wish to give up smoking receive a single dose of nicotine or placebo. Smokers are assigned to each dosage group in a double blind, randomized manner, as is well known in the art. The following data are collected before dosing, every thirty minutes for the first two hours after dosing, and every hour for the following six hours: plasma levels of nicotine and cotinine, vital signs, adverse events, and patient's assessment of cigarette cravings. Baseline and endpoint clinical chemistry, hematology, urinalysis, and ECG are also monitored.
(§2) There were 6 subjects per treatment group. […] Apple juice was used as the beverage for delivering nicotine from the straw-like device.

[4] = Description: as §1
On day eight, again following overnight abstinence from smoking, the same subjects receive the same dose of nicotine or placebo. The dose is repeated periodically throughout the day. The following data are collected as described above before the first dosing and one hour after each dose is administered: plasma levels of nicotine and cotinine, vital signs, adverse events, and patient's assessment of cigarette cravings. Baseline and endpoint clinical chemistry, hematology, urinalysis, and ECG are also monitored. The data are used to evaluate the safety and pharmacokinetics of nicotine delivery by the smoking cessation device.
as §2

## Oc1ccc2c3c1O[C@H]1[C@H](O)CC[C@@]4(O)[C@@H](C2)N(CC2CC2)CC[C@]314 [6β-naltrexol]
[1]
  plasma half-life: 12 h

## O=C1CC[C@@]2(O)[C@H]3Cc4ccc(O)c5c4[C@@]2(CCN3CC2CC2)[C@H]1O5 [Naltrexone, naltrexone]
[2]
  effects on smoking cessation: only small effects

## CN1CCCC1c1cccnc1 (centres unmarked) [nicotine]
[3]; 4 mg dose group
  plasma levels of nicotine by dose group: lowest plasma levels
[3]; 8 mg and 12 mg dose groups
  plasma levels of nicotine by dose group: higher plasma levels
[3]; 15 minutes after dosing
  nicotine levels in most subjects: already increased
[3]; repeated dosing every 1.5 hours, 10.5 hour sampling period
  plasma nicotine on repeated dosing: continuous increases
[3]; single dose 4 mg, 8 mg or 12 mg, straw-like device, FIG. 3
  plasma levels of nicotine versus marketed nicotine replacement products: comparable to or greater than
[3]; straw-like device, FIG. 4
  kinetics compared with nicotine gum: very similar
[4]; 4 mg and 8 mg doses in straw-like delivery device
  tolerability: well tolerated
[4]; 12 mg dose versus 4 mg and 8 mg
  nausea and vomiting: seen only with the 12 mg dose
[4]; all nicotine doses
  adverse events observed: lightheadedness, nausea, and vomiting
[4]; human, in vivo
  clinical chemistry, hematology, urinalysis or ECG values: no clinically significant changes
  vital sign measurements: Occasional increases
[4]; over the repeat dosing session, all subjects receiving nicotine
  craving for cigarettes: decreased
